According to article PMC1716192, “A Plant-Derived Morphinan as a Novel Lead Compound Active against Malaria Liver Stages” (PLoS Medicine, 2006):

Experiments:
[1] = system: P. yoelii transmissibility (oocysts, sporozoites in A. stephensi); experiment: Transmissibility to A. stephensi mosquitoes fed on treated mice; assay type: in vivo; settings: 200 mg/kg, A. stephensi fed on treated mice (unpublished data)
Protocol: In order to test for inhibitory activity against P. yoelii blood stages, four groups of five naive mice were inoculated (intraperitoneally) with 10^6 P. yoelii–infected red blood cells on day 0. Three hours later, one group was treated with tazopsine at 100 mg/kg, another with NCP-tazopsine at 200 mg/kg, whereas the other two groups acted as controls (respectively, water and 10% Tween 80). The doses were repeated daily until day +3. For the group treated with NCP- tazopsine and its control group, the animals were anesthetised 2 h following the administration of the last dose (day +3), and placed for 30 min over a cage with 100 female laboratory-bred A. stephensi. Oocysts were enumerated in 30 mosquito midguts dissected 8 d later, and the number of sporozoites in the salivary glands dissected from 30 insects was ascertained a further 7 d later. All the experiments were performed in two independent duplicates, and enumeration of parasites in blood smears and mosquitoes was conducted in a blinded fashion.

[2] = system: P. yoelii liver stage parasites (18S rRNA); experiment: Real-time PCR quantification of P. yoelii parasites in mouse livers; assay type: in vivo, Swiss mice; settings: 42 h PI
Protocol: Female 6-wk-old Swiss mice weighing 24–31 g were randomly allotted to three groups. The drug to be tested was administrated orally on days −1, 0, and +1. Group 1 received 100 mg/kg/d of NCP-tazopsine (n = 4), group 2 received 200 mg/kg/d of NCP-tazopsine (n = 6), whereas the control group received Tween 80 at 10% in sterile water (n = 5). Mice were challenged on day 0 by retro-orbital injection with 120,000 P. yoelii sporozoites and sacrificed 42-h postinoculation. A piece of liver (0.2 g) was harvested and total RNA extracted using the Micro to Midi kit (Invitrogen) according to the manufacturer's instructions. The detection and quantification of liver stage parasites were done as described with minor modifications. Five micrograms of total RNA were treated with DNase from the Turbo DNA-free kit (Ambion, Huntingdon, United Kingdom) and reverse transcribed by Superscript II (Invitrogen) according to the manufacturer's instructions. A total of 6 μl of the 300 μl obtained (an equivalent to 100 ng of the starting total RNA) were used per TaqMan PCR assay (MX4000 multiplex quantitative PCR system; Stratagene, La Jolla, California, United States). […] Lack of nonspecific amplification with mouse genomic DNA was determined in preliminary experiment (unpublished data). […] Absolute transcript copy number for each gene was calculated based on their external standard curves. […]

COC1=C2[C@@H]3[C@H](O)c4ccc(OC)c(O)c4[C@]2(CCN3C2CCCC2)C[C@H](O)[C@@H]1O [NCP-tazopsine, N-cyclopentyl-tazopsine]
effect on the transmissibility of the parasite [1]: no effect | reduction of liver parasite load versus controls ([2]; fully protective dose (200 mg/kg/d oral), 120,000 sporozoites): 99.98% | reduction of liver parasite load versus controls ([2]; suboptimal dose (100 mg/kg/d oral), 120,000 sporozoites): 98.58%
